According to patent US20080090805A1, “CB-1 MODULATING COMPOUNDS AND THEIR USE” (ACADIA PHARMACEUTICALS INC., priority 2005, published 2008):
Read-outs that look alike come from different tables or passages of the source.

Columns and labels:
[1] = biological target: native CB1 receptors (Rattus norvegicus, UniProt P20272); experiment: CB1 receptor rat binding assay ([3H]SR141716A, rat brain membranes)
[2] = biological target: CB1 (mutant) (Homo sapiens, UniProt P21554); experiment: R-SAT functional receptor assay, CB1 (mutant, truncated after amino acid 417); type: cell-based; conditions: R-SAT CB1; for IC50: receptor form (mutant or wild-type) not stated; for Emax: receptor form not stated, relative to SR141716 (100%), read-out: % Inhibition
[3] = rat brain membranes, [3H]SR141716A
[4] = rat brain membranes, [3H]SR141716A, read-out: Binding rat pKi (converted)
[5] = rat brain membranes, 3 nM [3H]SR141716A, read-out: Rat Brain pKi (converted)
[6] = Appendix A, read-out: pIC50 (converted)

Sequence of native CB1 receptors (P20272 whole entry, the tested form may be a part): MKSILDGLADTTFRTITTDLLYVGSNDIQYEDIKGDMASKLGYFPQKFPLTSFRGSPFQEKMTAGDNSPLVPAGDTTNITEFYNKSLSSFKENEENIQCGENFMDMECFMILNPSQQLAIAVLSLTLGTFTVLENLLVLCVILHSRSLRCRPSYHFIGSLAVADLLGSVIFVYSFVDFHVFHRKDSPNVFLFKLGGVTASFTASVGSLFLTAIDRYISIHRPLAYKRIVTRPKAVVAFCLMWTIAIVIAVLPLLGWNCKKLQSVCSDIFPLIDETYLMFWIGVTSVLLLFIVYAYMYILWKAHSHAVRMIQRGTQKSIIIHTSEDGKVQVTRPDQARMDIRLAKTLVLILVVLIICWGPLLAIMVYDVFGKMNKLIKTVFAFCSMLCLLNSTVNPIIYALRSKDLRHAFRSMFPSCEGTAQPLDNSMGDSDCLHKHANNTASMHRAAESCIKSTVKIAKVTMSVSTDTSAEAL
Sequence of CB1 (mutant) (P21554 1-417, change not shown): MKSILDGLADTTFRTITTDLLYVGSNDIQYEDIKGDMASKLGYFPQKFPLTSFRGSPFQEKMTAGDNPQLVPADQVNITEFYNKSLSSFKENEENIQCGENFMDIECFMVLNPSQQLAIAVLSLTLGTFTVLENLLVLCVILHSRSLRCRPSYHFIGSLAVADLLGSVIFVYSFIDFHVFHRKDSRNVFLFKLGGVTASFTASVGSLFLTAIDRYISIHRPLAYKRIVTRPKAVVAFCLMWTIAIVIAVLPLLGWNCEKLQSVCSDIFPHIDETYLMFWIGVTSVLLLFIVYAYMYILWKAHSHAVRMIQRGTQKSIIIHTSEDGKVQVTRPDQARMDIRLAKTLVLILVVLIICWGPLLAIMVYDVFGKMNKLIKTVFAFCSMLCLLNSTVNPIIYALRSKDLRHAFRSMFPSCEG

| SMILES | IC50 [2, 6] [µM] | Emax ([2]; Appendix A) [%] | other results |
| --- | --- | --- | --- |
| O=C(NC1CCC(F)(F)CC1)c1ccc2c(c1)N=C(c1ccc(Cl)cc1F)c1ccccc1S2 | – | – | Binding rat Inh % [1, 3]: 78%; Ki [1, 4]: 0.001 µM |
| O=C(NC1CCC(F)(F)CC1)c1ccc2c(c1)N=C(c1ccc(Cl)cc1)c1ccccc1S2 | – | – | Binding rat Inh % [1, 3]: 90%; Ki [1, 4]: 0.00251 µM |
| CCCCNC(=O)c1ccc2c(c1)N=C(c1ccc(F)c(F)c1)c1ccccc1S2 | – | – | Binding rat Inh % [1, 3]: 102%; Ki [1, 4]: 0.00251 µM |
| CC(NC(=O)c1ccc2c(c1)N=C(N1CCCCC1)c1ccccc1S2)c1ccccc1 (stereo not shown) | – | – | Ki [1, 4]: 0.02 µM |
| O=C(NC1CCC(F)(F)CC1)c1ccc2c(c1)N=C(c1ccsc1)c1ccccc1S2 | – | – | Binding rat Inh % [1, 3]: 92%; Ki [1, 4]: 0.00316 µM |
| CCCC1=Nc2cc(C(=O)NC(C)C34C[C@H]5C[C@@H](C3)C[C@@H](C4)C5)ccc2Sc2ccccc21 (stereo partly shown) | – | – | Ki [1, 4]: 0.0251 µM |
| O=C(NN1CCCCC1)c1ccc2c(c1)N=C(c1cccc(Cl)c1)c1ccccc1O2 | – | – | Ki [1, 4]: 0.0398 µM |
| O=C(NCc1cccc(Cl)c1)c1ccc2c(c1)N=C(C1CCCCC1)c1cc(F)ccc1S2 | – | – | Ki [1, 4]: 0.01 µM |
| CCC1=Nc2cc(C(=O)NCCc3ccc(OC)c(OC)c3)ccc2Sc2ccccc21 | – | – | Ki [1, 4]: 0.0631 µM |
| O=C(NN1CCCCC1)c1ccc2c(c1)N=C(C1CCCCC1)c1ccccc1O2 | – | – | Ki [1]: 0.0631 µM |
| O=C(NN1CCCCC1)c1ccc2c(c1)N=C(c1ccc(Cl)cc1)c1ccccc1O2 | – | – | Ki [1, 4]: 0.0794 µM |
| O=C(NNC(=O)c1ccc2c(c1)N=C(c1cccc(Br)c1)c1ccccc1S2)c1ccccc1 | – | – | Binding rat Inh % [1, 3]: 73%; Ki [1, 4]: 0.1 µM |
| Cc1ccc(N2CCN(C(=O)c3ccc4c(c3)N=C(Cl)c3ccccc3S4)CC2)c(C)c1 [Example 12] | – | – | Ki [1, 5]: 0.251 µM |
| Cc1ccc(N2CCN(C(=O)c3ccc4c(c3)N=C(c3ccc(Cl)cc3)c3ccccc3S4)CC2)c(C)c1 [Example 19] | – | – | Ki [1, 5]: 0.0501 µM |
| CC(C)CCNC(=O)c1ccc2c(c1)N=C(c1ccccc1Cl)c1ccccc1S2 [drawing 1053] | 0.0316 | 105 | – |
| CCCNC(=O)c1ccc2c(c1)N=C(c1ccc(Br)cc1)c1ccccc1S2 [drawing 1055] | 0.0316 | 92 | – |
| O=C(NCc1ccc(Cl)cc1Cl)c1ccc2c(c1)N=C(c1ccc(F)cc1)c1ccccc1S2 [drawing 1057] | 0.0316 | 96 | – |
| O=C(NCc1ccccc1Cl)c1ccc2c(c1)N=C(C1CCCCC1)c1ccccc1S2 [drawing 1059] | 0.0316 | 91 | – |
| O=C(NC1CCCCC1)c1ccc2c(c1)N=C(c1ccc(F)cc1)c1ccccc1S2 [drawing 1065] | 0.0316 | 111 | – |
| CC(C)CCNC(=O)c1ccc2c(c1)N=C(c1ccccc1F)c1ccccc1S2 [drawing 1067] | 0.0316 | 117 | – |
| O=C(NCCc1cccc(Cl)c1)c1ccc2c(c1)N=C(c1ccccc1)c1ccccc1S2 [drawing 1069] | 0.0316 | 102 | – |
| O=C(NCCc1ccccn1)c1ccc2c(c1)N=C(c1ccc(Cl)c(Cl)c1)c1ccccc1S2 [drawing 1077] | 0.0316 | 93 | – |
| CC(C)NC(=O)c1ccc2c(c1)N=C(c1ccc(F)cc1)c1ccccc1S2 [drawing 1079] | 0.0316 | 97 | – |

| SMILES | IC50 [2, 6] [µM] | Emax ([2]; Appendix A) [%] | other results |
| --- | --- | --- | --- |
| COCCNC(=O)c1ccc2c(c1)N=C(c1ccc(Br)cc1)c1ccccc1S2 [drawing 1081] | 0.0316 | 69 | – |
| O=C(NCc1cccc(Cl)c1)c1ccc2c(c1)N=C(c1ccccc1F)c1ccccc1S2 [drawing 1083] | 0.0316 | 99 | – |
| O=C(NCCc1ccc(Cl)cc1)c1ccc2c(c1)N=C(c1ccccc1F)c1ccccc1S2 [drawing 1085] | – | 101 | IC50 ([2]; pIC50, Appendix A): 0.0316 µM |
| O=C(NCc1ccccc1Cl)c1ccc2c(c1)N=C(c1ccc(Cl)cc1)c1ccccc1S2 [drawing 1089] | – | 95 | IC50 ([2]; pIC50, Appendix A): 0.0316 µM |
| O=C(NCc1cccnc1)c1ccc2c(c1)N=C(c1ccc(Cl)cc1)c1ccccc1S2 [drawing 1093] | 0.0316 | 88 | – |
| O=C(NCCc1ccncc1)c1ccc2c(c1)N=C(c1ccc(Cl)c(Cl)c1)c1ccccc1S2 [drawing 1095] | 0.0316 | 119 | – |
| O=C(NCCc1ccncc1)c1ccc2c(c1)N=C(c1cccc(F)c1)c1ccccc1S2 [drawing 1097] | – | 106 | IC50 ([2]; pIC50, Appendix A): 0.0316 µM |
| CCOC(=O)N1CCC(NC(=O)c2ccc3c(c2)N=C(c2ccc(Cl)cc2)c2ccccc2S3)CC1 [drawing 1101] | 0.0316 | 109 | – |
| CC(NC(=O)c1ccc2c(c1)N=C(c1ccc(Cl)cc1)c1ccccc1S2)c1ccccc1 (stereo not shown) [drawing 1107] | 0.0398 | 88 | – |
| CCCCNC(=O)c1ccc2c(c1)N=C(c1ccc(Cl)s1)c1ccc(Cl)cc1S2 [drawing 1109] | 0.0398 | 104 | – |
| CCCCNC(=O)c1ccc2c(c1)N=C(c1ccc(Cl)cc1)c1cc(F)ccc1S2 [drawing 1111] | 0.0398 | 98 | – |
| CC(C)CNC(=O)c1ccc2c(c1)N=C(c1ccc(Cl)cc1)c1ccc(Cl)cc1S2 [drawing 1113] | 0.0398 | 106 | – |
| CCCC1=Nc2cc(C(=O)NC3CCCC(C)C3C)ccc2Sc2ccccc21 (stereo not shown) [drawing 1115] | – | 101 | IC50 ([2]; pIC50, Appendix A): 0.0398 µM |
| CCN(CCNC(=O)c1ccc2c(c1)N=C(c1ccccc1F)c1ccccc1S2)c1ccccc1 [drawing 1117] | 0.0398 | 100 | – |
| Cc1ccc(CNC(=O)c2ccc3c(c2)N=C(c2ccc(Cl)cc2)c2ccccc2S3)o1 [drawing 1141] | – | 93 | IC50 ([2]; pIC50, Appendix A): 0.0398 µM |
| O=C(c1ccc2c(c1)N=C(c1ccc(F)cc1)c1ccccc1S2)N1CCCCC1 [drawing 1163] | – | 90 | IC50 ([2]; pIC50, Appendix A): 0.0398 µM |
| O=C(NCCc1cccc(Cl)c1)c1ccc2c(c1)N=C(c1ccc(F)cc1)c1ccccc1S2 [drawing 1179] | – | – | Ki [1, 4]: 0.0126 µM |
| O=C(NCc1cccnc1)c1ccc2c(c1)N=C(c1ccc(Br)cc1)c1ccccc1S2 [drawing 1180] | – | – | Binding rat Inh % [1, 3]: 72%; Ki [1, 4]: 0.0126 µM |
| O=C(NCc1cccc(Cl)c1)c1ccc2c(c1)N=C(N1CCCCC1)c1cc(F)ccc1S2 [drawing 1181] | – | – | Ki [1, 4]: 0.0126 µM |
| Cc1ccsc1C1=Nc2cc(C(=O)NN3CCCCC3)ccc2Sc2ccccc21 [drawing 1182] | – | – | Binding rat Inh % [1, 3]: 59%; Ki [1, 4]: 0.0126 µM |
| CCCCNC(=O)c1ccc2c(c1)N=C(c1ccc(Cl)cc1)c1ccc(Cl)cc1S2 [drawing 1187] | – | – | Binding rat Inh % [1, 3]: 94%; Ki [1, 4]: 0.0126 µM |
| CC(C)CCNC(=O)c1ccc2c(c1)N=C(c1ccccc1Cl)c1ccccc1S2 [drawing 1188] | – | – | Binding rat Inh % [1, 3]: 116%; Ki [1, 4]: 0.0126 µM |

Continued, in another order:

| IC50 [2, 6] [µM] | Emax ([2]; Appendix A) [%] | SMILES | other results |
| --- | --- | --- | --- |
| 0.0398 | 103 | O=C(NCCc1ccc(Cl)cc1)c1ccc2c(c1)N=C(N1CCC(F)CC1)c1ccccc1S2 [drawing 1119] | – |
| 0.0398 | 89 | O=C(NCc1ccccc1Cl)c1ccc2c(c1)N=C(c1ccc(F)cc1)c1ccccc1S2 [drawing 1121] | – |
| 0.0398 | 101 | O=C(NCc1ccc(Cl)cc1Cl)c1ccc2c(c1)N=C(N1CCCCC1)c1ccccc1S2 [drawing 1123] | – |
| 0.0398 | 98 | O=C(NCc1ccc(F)cc1)c1ccc2c(c1)N=C(c1ccc(Cl)cc1)c1ccccc1[S+]2[O-] (stereo not shown) [drawing 1125] | – |
| 0.0398 | 106 | O=C(NN1CCCCC1)c1ccc2c(c1)N=C(c1cccc(Cl)c1)c1ccccc1S2 [drawing 1127] | – |
| 0.0398 | 96 | CCCCNC(=O)c1ccc2c(c1)N=C(c1ccccc1F)c1ccccc1S2 [drawing 1129] | – |
| 0.0398 | 96 | C[C@@H]1CCC[C@H](C)N1NC(=O)c1ccc2c(c1)N=C(c1ccc(Cl)cc1)c1ccccc1S2 [drawing 1133] | – |
| 0.0398 | 116 | O=C(NCCc1ccncc1)c1ccc2c(c1)N=C(c1ccc(Cl)cc1)c1ccccc1S2 [drawing 1135] | – |
| 0.0398 | 86 | O=C(NC1CCCC1)c1ccc2c(c1)N=C(c1ccc(Cl)s1)c1ccccc1S2 [drawing 1139] | – |
| 0.0398 | 85 | CCOCCNC(=O)c1ccc2c(c1)N=C(c1ccc(Br)cc1)c1ccccc1S2 [drawing 1143] | – |
| 0.0398 | 101 | O=C(NCCc1ccccn1)c1ccc2c(c1)N=C(c1ccc(F)cc1)c1ccccc1S2 [drawing 1145] | – |
| 0.0398 | 85 | CC(NC(=O)c1ccc2c(c1)N=C(c1ccccc1)c1ccccc1S2)c1ccccc1 (stereo not shown) [drawing 1147] | – |
| 0.0398 | 103 | C[C@@H]1CCC[C@H](C)N1NC(=O)c1ccc2c(c1)N=C(c1ccccc1F)c1ccccc1S2 [drawing 1149] | – |
| 0.0398 | 115 | COc1ccc(C2=Nc3cc(C(=O)NC4CCCCC4)ccc3Sc3ccccc32)cc1 [drawing 1153] | – |
| 0.0398 | 104 | CC(C)NC(=O)c1ccc2c(c1)N=C(c1cccc(F)c1)c1ccccc1S2 [drawing 1155] | – |
| 0.0398 | 125 | O=C(NCc1ccccn1)c1ccc2c(c1)N=C(c1ccc(Cl)cc1)c1ccccc1S2 [drawing 1157] | – |
| 0.0398 | 98 | CCCCNC(=O)c1ccc2c(c1)N=C(c1ccc(Cl)cc1Cl)c1ccccc1S2 [drawing 1165] | – |
| 0.0398 | 91 | O=C(NCc1ccc(Cl)cc1Cl)c1ccc2c(c1)N=C(c1ccccc1)c1ccccc1S2 [drawing 1167] | – |
| 0.0398 | 102 | CC(CNC(=O)c1ccc2c(c1)N=C(N1CCCCC1)c1cc(F)ccc1S2)c1ccccc1 (stereo not shown) [drawing 1171] | – |
| – | 27 | CC(C)CNC(=O)c1ccc2c(c1)N=C(c1ccc(Cl)cn1)c1ccc(Cl)cc1S2 [drawing 1172] | – |
| 0.0398 | 110 | CC(CNC(=O)c1ccc2c(c1)N=C(c1ccc(Cl)cc1)c1cc(F)ccc1S2)c1ccccc1 (stereo not shown) [drawing 1173] | – |
| – | 58 | N#Cc1ccc(C2=Nc3cc(C(=O)NNCc4ccccc4)ccc3Sc3ccccc32)cc1 [drawing 1174] | – |
